Data taken from US10682333B2, “Composition for inhibiting formation of SNARE complex, containing myricetin derivatives” (RESEARCH & BUSINESS FOUNDATION SUNGKYUNKWAN UNIVERSITY, priority 2015, dated 2020).
Where two headings read alike, the source gives them in different places.

Columns and labels:
[1] = target: T1, SNARE complex (Syntaxin 1A-CFP, VAMP2-YFP) in PCl2 cells (UniProt P60881+P63027+Q16623); test: In vivo (cell) SNARE function screen: FRET C and NPY release in PCl2 cells; format: cell-based
T1 construct: expressed in transfected cells
T1 sequence (Q16623 whole entry): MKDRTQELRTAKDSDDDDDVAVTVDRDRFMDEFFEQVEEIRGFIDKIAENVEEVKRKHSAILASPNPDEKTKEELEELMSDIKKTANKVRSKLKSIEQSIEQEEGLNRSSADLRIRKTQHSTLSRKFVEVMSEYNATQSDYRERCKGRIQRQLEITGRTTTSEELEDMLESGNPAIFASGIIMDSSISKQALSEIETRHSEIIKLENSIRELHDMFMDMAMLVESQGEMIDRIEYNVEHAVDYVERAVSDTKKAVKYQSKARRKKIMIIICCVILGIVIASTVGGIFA
T1 sequence (P63027 whole entry): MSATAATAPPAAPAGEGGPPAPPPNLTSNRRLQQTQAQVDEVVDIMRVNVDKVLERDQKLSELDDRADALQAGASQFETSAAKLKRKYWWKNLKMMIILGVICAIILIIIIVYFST
T1 sequence (P60881 whole entry): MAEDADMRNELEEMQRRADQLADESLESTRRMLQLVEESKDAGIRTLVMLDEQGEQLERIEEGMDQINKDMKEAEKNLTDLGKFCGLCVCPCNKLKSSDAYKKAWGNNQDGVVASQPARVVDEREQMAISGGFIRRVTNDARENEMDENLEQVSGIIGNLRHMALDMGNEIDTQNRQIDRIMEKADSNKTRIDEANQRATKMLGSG

[2] = test system: PCl2 cells; test: [3H] norepinephrine release from PCl2 cells (liquid scintillation); format: cell-based; conditions: for inhibition of release of [3H] norepinephrine: Krebs' buffer with high K+
Description: The first method is as follows. […] After thorough washing, the PCl2 cells were washed four times with the culture medium for 15 minutes each. […] The medium was replaced with Krebs' buffer with high K^+, followed by culturing for 10 minutes, to collect samples. The collected samples were subjected to radiation measurement using a liquid scintillation counter.

[3] = Light stability under UV, color observed with the naked eye over time; format: physicochemical; conditions: UV lamp
Description: It was examined whether myricetin, and laricitrin and syringetin, which are naturally occurring myricetin derivatives, were denatured when exposed to UV. First, each myricetin derivative (MP, 1 mg/1.34 g), prepared by reacting myricetin (M, 1 mg/1.34 g) and palmitic acid, was uniformly mixed in a commercially available sunblock cream (Kolmar Korea, NoTS UV protection sunscreen cream, 1.34 g), and the mixture was applied on a cover glass, followed by irradiation for 24 hours with UV having an intensity of 253.7 nM using a UV lamp.

[4] = target: T2, SNARE complexes (Homo sapiens, UniProt P60880+P63027+Q16623); test: Immunoblotting of SDS-resistant SNARE complexes, in vivo; format: cell-based; conditions: SDS-PAGE
T2 sequence (Q16623 whole entry): as the sequence (Q16623 whole entry) above
T2 sequence (P60880 whole entry): as the sequence (P60881 whole entry) above
T2 sequence (P63027 whole entry): as the sequence (P63027 whole entry) above
Source text: (§1) The above characteristics were clearly confirmed by immunoblotting of SNARE complexes (see FIG. 2B). SNARE complexes are known to have SDS-resistance, and based on these characteristics, immunoblotting using SDS-PAGE is generally used to identify the formation of SNARE complexes.

[5] = Light stability under UV, DMSO solution mixed with zinc oxide; format: physicochemical; conditions: 1 mg/ml DMSO with zinc oxide, UV 2 hours
Description: First, 1 mg of each of myricetin and the myricetin derivatives were dissolved in 1 ml of dimethyl sulfoxide (DMSO), followed by mixing with zinc oxide having high reactivity with a hydroxyl group of myricetin. The resulting mixed solution was applied, as 100 μl drops, on 3M paper, and irradiated for 2 hours with UV light having an intensity of 253.7 nM using a UV lamp. As negative controls, untreated DMSO and a mixed solution of untreated DMSO and zinc oxide were used.

[6] = target: SNARE-mediated membrane fusion (Homo sapiens, UniProt P60880+P63027+Q16623); test: In vitro membrane fusion by FRET on dye-labelled lipid bilayer membrane; format: biochemical; conditions: artificial lipid bilayer membrane
Sequence of SNARE-mediated membrane fusion (Q16623 whole entry, the tested form may be a part): as the sequence (Q16623 whole entry) above
Sequence of SNARE-mediated membrane fusion (P60880 whole entry, the tested form may be a part): as the sequence (P60881 whole entry) above
Sequence of SNARE-mediated membrane fusion (P63027 whole entry, the tested form may be a part): as the sequence (P63027 whole entry) above

[7] = Solubility in canola oil and mineral oil; format: physicochemical
Description: In the present experimental example, in view of the fact that in Example 4, myricetin underwent various changes in properties during synthesis of a myricetin derivative, in which all hydroxyl groups of myricetin were acylated by palmitic acid, the solubilities of the myricetin derivative in an organic solvent, or in a commercially available liposoluble cosmetic, food product, or the like were measured.
In particular, the myricetin derivative was dissolved in canola oil and mineral oil at a ratio of 1 mg/l ml. The results thereof are illustrated in FIG. 13.

[8] = target: T2, SNARE complexes; test: Immunoblotting of SDS-resistant SNARE complexes, in vitro; format: biochemical; conditions: SDS-PAGE
Source text: as §1

[9] = test system: PCl2 cells; test: Intracellular bioconversion into myricetin in PCl2 cells (HPLC); format: in vitro ADME; conditions: within 1 hour
Description: A rate of bioconversion of the myricetin derivative prepared by acylation with acetic acid into myricetin in vivo was determined.
After the cells were completely washed, the cells were treated with trypsin to collect trypsin-attached cells, and trypsin was removed therefrom to obtain only pure cells. The cells were suspended in 100 μl of tetrahydrofuran, followed by disruption through sonication, and then only tetrahydrofuran in which materials in the cells were lysed was collected. Subsequently, only myricetin in the recovered purified liquid was analyzed by high-performance liquid chromatography (HPLC) to examine whether the myricetin derivative prepared by acylation using acetic acid was converted into myricetin, and the results thereof are illustrated in FIG. 15.

[10] = Examination of color of myricetin derivatives by degree of acylation; format: physicochemical; conditions: degree of acylation by palmitic acid
Source text: In the present experimental example, whether a disadvantage of myricetin that a too dark intrinsic color thereof causes the skin to be stained can be addressed through making changes in properties using myricetin derivatives according to the present invention was examined.
As a result, it was observed that as a degree to which a hydroxyl group of myricetin was acylated by palmitic acid, i.e., the degree of acylation, increased, colors of the myricetin derivatives were changed, unlike conventional myricetin. In particular, it was observed that the myricetin derivative obtained in Example 3, in which one hydroxyl group of myricetin was acylated by palmitic acid, had yellow color, which is an intrinsic color of myricetin (see FIG. 12A), whereas the myricetin derivative obtained in Example 4, in which all hydroxyl groups of myricetin were acylated by palmitic acid, had white color (see FIG. 12B).

Structure (SMILES)	in vivo functions (FRET C, NPY release) [1]	inhibition of release of [3H] norepinephrine [2]	color change on UV irradiation compared to myricetin [3]	time after UV irradiation at which color turned brown [3] [min]	formation of SNARE complexes in vivo [4]	further results
O=c1c(O)c(-c2cc(O)c(O)c(O)c2)oc2cc(O)cc(O)c12 [myricetin]	–	concentration-dependent manner	–	5	decreasing tendency	in vivo functions (FRET C, NPY release) ([1]; PCl2 cells): ≤ 40 % of the control; color change on UV exposure [5]: color changes over time; in vitro functions (membrane fusion) [6]: ≤ 40 % of the control; solubility in canola oil ([7]; 1 mg/1 ml): insoluble; solubility in mineral oil ([7]; 1 mg/1 ml): insoluble; time after UV irradiation at which color turned dark brown (complete oxidation) [3]: 30 min; formation of SNARE complexes in vitro [8]: decreasing tendency
COc1cc(-c2oc3cc(O)cc(O)c3c(=O)c2O)cc(OC)c1O [syringetin]	–	–	did not show clear color changes	240	decreasing tendency only in vivo	–
CC(=O)Oc1cc(OC(C)=O)c2c(=O)c(OC(C)=O)c(-c3cc(OC(C)=O)c(OC(C)=O)c(OC(C)=O)c3)oc2c1 [MA]	–	comparable or slightly better activity	–	–	–	fraction bioconverted into myricetin [9]: 3%
CCCCCCCCCCCCCCCC(=O)Oc1cc(OC(=O)CCCCCCCCCCCCCCC)c2c(=O)c(OC(=O)CCCCCCCCCCCCCCC)c(-c3cc(OC(=O)CCCCCCCCCCCCCCC)c(OC(=O)CCCCCCCCCCCCCCC)c(OC(=O)CCCCCCCCCCCCCCC)c3)oc2c1 [MP]	–	–	–	–	–	solubility in canola oil [7]: liposoluble; solubility in mineral oil [7]: liposoluble; color of the substance [10]: white color

More lines, main results first:

in vivo functions (FRET C, NPY release) [1]	Structure (SMILES)	inhibition of release of [3H] norepinephrine [2]	color change on UV irradiation compared to myricetin [3]	time after UV irradiation at which color turned brown [3] [min]	formation of SNARE complexes in vivo [4]	further results
40-45 % of the control	COc1cc(-c2oc3cc(O)cc(O)c3c(=O)c2O)cc(O)c1O [laricitrin]	highest reactivity	did not show clear color changes	60	decreasing tendency only in vivo	activity of inhibiting [3H] norepinephrine release compared to conventional myricetin ([2]; 20 μM): at least two-fold improved activity
40-45 % of the control	COc1cc(O)c2c(=O)c(OC)c(-c3cc(OC)c(OC)c(OC)c3)oc2c1 [combretol]	–	–	–	decreasing tendency only in vivo	–
